This passage reports TGI and GI50 results from PubChem BioAssay (NCI).

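The compound was tested at five concentrations on cells cultured in 96-well plates, with a 48-hour exposure period. GI50: concentration for 50% inhibition of growth. Definition used: TGI = concentration required for complete inhibition of growth.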

The first experiment has as its system HOP-62 NSCLC. Description: growth of human tumour cells (NCI), 48 h.
For the molecule `C/C(=N\Nc1nc2ccccc2s1)c1ccc2ccccc2n1`, the TGI is > 100 µM.
Regarding `CN1N=C(c2ccncc2)OC1c1ccccc1F` (stereo not given), the TGI is > 100 µM.
Still for that read-out and setting: then `O=C(/C=C/c1ccc2c(c1)OCO2)Cc1nc2ccccc2[nH]c1=O`, with 35.2 µM.
Take `Cc1c(-c2ccccc2)[nH]n(C2=NCCN2)c1=O`: the TGI is > 100 µM.
For `COc1ccc(Oc2cnn(C(Br)(Br)C(C)=O)c(=O)c2Br)cc1`, the TGI worked out at 35.5 µM.
With `O=S1(=O)c2cnccc2NC(=NCc2ccccc2)N1c1ccccc1`, the TGI is > 100 µM.
On the same count and under the same terms, then `CN(C)CCCNC(=O)c1c(O)c2ccccc2n(C)c1=O`, with > 100 µM.
Take `COc1ccc(-n2nc(C)c3c(Nc4ccc(NC(=O)Nc5ccc(Cl)c(C(F)(F)F)c5)cc4)ncnc32)cc1`: the GI50 is 1.83 µM and the TGI worked out at 3.66 µM.
Regarding `Cc1cc(O)c(-c2cc(O)c(C)cc2O)cc1O`, the TGI was 32.6 µM.
As for `O=C(O)CN(CC(=O)O)C(C(=O)O)c1ccccc1` (stereo not given), the TGI is > 100 µM.
On the same count and under the same terms, then `CCNc1ncnc2sc(SCc3ccccc3)nc12`, with > 100 µM.
Consider `O=C(OCC1OC(n2nc(Cn3nnc(-c4cccnc4)n3)n(-c3cccc4ccccc34)c2=S)C(OC(=O)c2ccccc2)C1OC(=O)c1ccccc1)c1ccccc1` (stereo not given), for which the TGI is > 100 µM.
With `CC1(C)N=C2C(=O)c3c([nH]c4ccccc34)[C@]3(C)CCC1CC23` (stereo not given in full), the TGI was > 6.25 µM.
Molecule `C[n+]1c(/C=C/c2ccc(O)c3ncccc23)[se]c2ccccc21` yielded a TGI of 19.1 µM.
The same measure, in the same setting: then `CC1=NNC(=O)C1C1CC(c2c[nH]c3ccccc23)=NN=C1Cl` (stereo not given), with > 100 µM.
In turn, `COc1ccc2c(c1)c(=O)c1c(NCCNCCO)ccc3c(=O)n(CCN(C)C)c(=O)n2c31` had a TGI of 2.4 µM.
The same measure, in the same setting: then `CC(C)N1CN(c2ccccc2)C2(CCN(CCCC(=O)c3ccc(F)cc3)CC2)C1=O`, with 11.9 µM; and `CC(C)=CCC[C@@H](C)C1=C(O)C(N)=C(C)C(=O)C1=O`, with > 100 µM.
The same measure, in the same setting: then `c1ccc(C2CC(=NC3CCCCC3)Nc3ccccc3N2)cc1` (stereo not given), with > 100 µM.

Another experiment has as its system RPMI-8226 leukemia. In words: growth of human tumour cells (NCI), 48 h.
`C/C(=N\Nc1nc2ccccc2s1)c1ccc2ccccc2n1`: the TGI came to 45.3 µM.
On the same count and under the same terms, then `CN1N=C(c2ccncc2)OC1c1ccccc1F` (stereo not given), with > 100 µM.
With `O=C(/C=C/c1ccc2c(c1)OCO2)Cc1nc2ccccc2[nH]c1=O`, the TGI is > 100 µM.
For `Cc1c(-c2ccccc2)[nH]n(C2=NCCN2)c1=O`, the TGI was > 100 µM.
`COc1ccc(Oc2cnn(C(Br)(Br)C(C)=O)c(=O)c2Br)cc1` returned a TGI of 11.8 µM.
Consider `O=S1(=O)c2cnccc2NC(=NCc2ccccc2)N1c1ccccc1`, for which the TGI is 58.8 µM.
Regarding `CN(C)CCCNC(=O)c1c(O)c2ccccc2n(C)c1=O`, the TGI was > 100 µM.
As for `COc1ccc(-n2nc(C)c3c(Nc4ccc(NC(=O)Nc5ccc(Cl)c(C(F)(F)F)c5)cc4)ncnc32)cc1`, the GI50 is 1.34 µM and the TGI turned out to be 4.21 µM.
For the molecule `Cc1cc(O)c(-c2cc(O)c(C)cc2O)cc1O`, the TGI stood at 4.07 µM.
Same read-out and setting: then `O=C(O)CN(CC(=O)O)C(C(=O)O)c1ccccc1` (stereo not given), with > 100 µM; and `CCNc1ncnc2sc(SCc3ccccc3)nc12`, with > 100 µM.
On to `O=C(OCC1OC(n2nc(Cn3nnc(-c4cccnc4)n3)n(-c3cccc4ccccc34)c2=S)C(OC(=O)c2ccccc2)C1OC(=O)c1ccccc1)c1ccccc1` (stereo not given), for which the TGI was > 100 µM.
On the same count and under the same terms, then `CC1(C)N=C2C(=O)c3c([nH]c4ccccc34)[C@]3(C)CCC1CC23` (stereo not given in full), with > 6.25 µM.
The same measure, in the same setting: then `C[n+]1c(/C=C/c2ccc(O)c3ncccc23)[se]c2ccccc21`, with 40.5 µM; and `CC1=NNC(=O)C1C1CC(c2c[nH]c3ccccc23)=NN=C1Cl` (stereo not given), with 81.6 µM.
On the same count and under the same terms, then `COc1ccc2c(c1)c(=O)c1c(NCCNCCO)ccc3c(=O)n(CCN(C)C)c(=O)n2c31`, with 1.15 µM.
As to `CC(C)N1CN(c2ccccc2)C2(CCN(CCCC(=O)c3ccc(F)cc3)CC2)C1=O`, the TGI was 31.1 µM.
On the same count and under the same terms, then `CC(C)=CCC[C@@H](C)C1=C(O)C(N)=C(C)C(=O)C1=O`, with 98.6 µM.
Consider `c1ccc(C2CC(=NC3CCCCC3)Nc3ccccc3N2)cc1` (stereo not given), for which the TGI was > 100 µM.

The next experiment deals with A498 renal. In words: growth of human tumour cells (NCI), 48 h.
As to `C/C(=N\Nc1nc2ccccc2s1)c1ccc2ccccc2n1`, the TGI is > 100 µM.
`CN1N=C(c2ccncc2)OC1c1ccccc1F` (stereo not given): the TGI is > 100 µM.
On the same count and under the same terms, then `O=C(/C=C/c1ccc2c(c1)OCO2)Cc1nc2ccccc2[nH]c1=O`, with 65.7 µM; and `Cc1c(-c2ccccc2)[nH]n(C2=NCCN2)c1=O`, with > 100 µM.
Same read-out and setting: then `COc1ccc(Oc2cnn(C(Br)(Br)C(C)=O)c(=O)c2Br)cc1`, with 59.9 µM; and `O=S1(=O)c2cnccc2NC(=NCc2ccccc2)N1c1ccccc1`, with > 100 µM; and `CN(C)CCCNC(=O)c1c(O)c2ccccc2n(C)c1=O`, with > 100 µM.
Turning to `COc1ccc(-n2nc(C)c3c(Nc4ccc(NC(=O)Nc5ccc(Cl)c(C(F)(F)F)c5)cc4)ncnc32)cc1`, the GI50 was 2.09 µM and the TGI stood at 5.67 µM.
`Cc1cc(O)c(-c2cc(O)c(C)cc2O)cc1O`: the TGI amounted to 41.8 µM.
On the same count and under the same terms, then `O=C(O)CN(CC(=O)O)C(C(=O)O)c1ccccc1` (stereo not given), with > 100 µM.
On the same count and under the same terms, then `CCNc1ncnc2sc(SCc3ccccc3)nc12`, with > 100 µM; and `O=C(OCC1OC(n2nc(Cn3nnc(-c4cccnc4)n3)n(-c3cccc4ccccc34)c2=S)C(OC(=O)c2ccccc2)C1OC(=O)c1ccccc1)c1ccccc1` (stereo not given), with > 100 µM; and `CC1(C)N=C2C(=O)c3c([nH]c4ccccc34)[C@]3(C)CCC1CC23` (stereo not given in full), with > 6.25 µM.
Turning to `C[n+]1c(/C=C/c2ccc(O)c3ncccc23)[se]c2ccccc21`, the TGI came to 30.5 µM.
The same measure, in the same setting: then `CC1=NNC(=O)C1C1CC(c2c[nH]c3ccccc23)=NN=C1Cl` (stereo not given), with > 100 µM.
For the molecule `COc1ccc2c(c1)c(=O)c1c(NCCNCCO)ccc3c(=O)n(CCN(C)C)c(=O)n2c31`, the TGI came to 0.534 µM.
On the same count and under the same terms, then `CC(C)N1CN(c2ccccc2)C2(CCN(CCCC(=O)c3ccc(F)cc3)CC2)C1=O`, with 7.06 µM; and `CC(C)=CCC[C@@H](C)C1=C(O)C(N)=C(C)C(=O)C1=O`, with > 100 µM; and `c1ccc(C2CC(=NC3CCCCC3)Nc3ccccc3N2)cc1` (stereo not given), with 93.7 µM.

In the next experiment the test system is HT29 colon. Description: growth of human tumour cells (NCI), 48 h.
On to `C/C(=N\Nc1nc2ccccc2s1)c1ccc2ccccc2n1`, for which the TGI is > 100 µM.
Consider `CN1N=C(c2ccncc2)OC1c1ccccc1F` (stereo not given), for which the TGI was > 100 µM.
Still for that read-out and setting: then `O=C(/C=C/c1ccc2c(c1)OCO2)Cc1nc2ccccc2[nH]c1=O`, with > 100 µM; and `Cc1c(-c2ccccc2)[nH]n(C2=NCCN2)c1=O`, with > 100 µM.
As for `COc1ccc(Oc2cnn(C(Br)(Br)C(C)=O)c(=O)c2Br)cc1`, the TGI is 48.4 µM.
Regarding `O=S1(=O)c2cnccc2NC(=NCc2ccccc2)N1c1ccccc1`, the TGI was > 100 µM.
On to `CN(C)CCCNC(=O)c1c(O)c2ccccc2n(C)c1=O`, for which the TGI was > 100 µM.
As to `COc1ccc(-n2nc(C)c3c(Nc4ccc(NC(=O)Nc5ccc(Cl)c(C(F)(F)F)c5)cc4)ncnc32)cc1`, the GI50 is 1.8 µM and the TGI stood at 4.17 µM.
Take `Cc1cc(O)c(-c2cc(O)c(C)cc2O)cc1O`: the TGI is > 53.1 µM.
Same read-out and setting: then `O=C(O)CN(CC(=O)O)C(C(=O)O)c1ccccc1` (stereo not given), with > 100 µM; and `CCNc1ncnc2sc(SCc3ccccc3)nc12`, with > 100 µM; and `O=C(OCC1OC(n2nc(Cn3nnc(-c4cccnc4)n3)n(-c3cccc4ccccc34)c2=S)C(OC(=O)c2ccccc2)C1OC(=O)c1ccccc1)c1ccccc1` (stereo not given), with > 100 µM.
Same read-out and setting: then `CC1(C)N=C2C(=O)c3c([nH]c4ccccc34)[C@]3(C)CCC1CC23` (stereo not given in full), with > 6.25 µM.
On the same count and under the same terms, then `C[n+]1c(/C=C/c2ccc(O)c3ncccc23)[se]c2ccccc21`, with 20.7 µM; and `CC1=NNC(=O)C1C1CC(c2c[nH]c3ccccc23)=NN=C1Cl` (stereo not given), with > 100 µM.
`COc1ccc2c(c1)c(=O)c1c(NCCNCCO)ccc3c(=O)n(CCN(C)C)c(=O)n2c31` yielded a TGI of 0.425 µM.
As to `CC(C)N1CN(c2ccccc2)C2(CCN(CCCC(=O)c3ccc(F)cc3)CC2)C1=O`, the TGI was found to be 7.85 µM.
Same read-out and setting: then `CC(C)=CCC[C@@H](C)C1=C(O)C(N)=C(C)C(=O)C1=O`, with > 100 µM; and `c1ccc(C2CC(=NC3CCCCC3)Nc3ccccc3N2)cc1` (stereo not given), with > 100 µM.

A further experiment relates to NCI/ADR-RES ovarian. In words: growth of human tumour cells (NCI), 48 h.
For `C/C(=N\Nc1nc2ccccc2s1)c1ccc2ccccc2n1`, the TGI is > 100 µM.
Same read-out and setting: then `CN1N=C(c2ccncc2)OC1c1ccccc1F` (stereo not given), with > 100 µM.
Take `O=C(/C=C/c1ccc2c(c1)OCO2)Cc1nc2ccccc2[nH]c1=O`: the TGI was > 100 µM.
On to `Cc1c(-c2ccccc2)[nH]n(C2=NCCN2)c1=O`, for which the TGI is > 100 µM.
Still for that read-out and setting: then `COc1ccc(Oc2cnn(C(Br)(Br)C(C)=O)c(=O)c2Br)cc1`, with 43.9 µM.
Regarding `O=S1(=O)c2cnccc2NC(=NCc2ccccc2)N1c1ccccc1`, the TGI is > 100 µM.
Take `CN(C)CCCNC(=O)c1c(O)c2ccccc2n(C)c1=O`: the TGI is > 100 µM.
For `COc1ccc(-n2nc(C)c3c(Nc4ccc(NC(=O)Nc5ccc(Cl)c(C(F)(F)F)c5)cc4)ncnc32)cc1`, the GI50 is 1.78 µM and the TGI was determined as 6.22 µM.
Consider `Cc1cc(O)c(-c2cc(O)c(C)cc2O)cc1O`, for which the TGI was found to be 97.1 µM.
Take `O=C(O)CN(CC(=O)O)C(C(=O)O)c1ccccc1` (stereo not given): the TGI is > 100 µM.
Same read-out and setting: then `CCNc1ncnc2sc(SCc3ccccc3)nc12`, with > 100 µM; and `O=C(OCC1OC(n2nc(Cn3nnc(-c4cccnc4)n3)n(-c3cccc4ccccc34)c2=S)C(OC(=O)c2ccccc2)C1OC(=O)c1ccccc1)c1ccccc1` (stereo not given), with > 100 µM; and `CC1(C)N=C2C(=O)c3c([nH]c4ccccc34)[C@]3(C)CCC1CC23` (stereo not given in full), with > 6.25 µM.
As to `C[n+]1c(/C=C/c2ccc(O)c3ncccc23)[se]c2ccccc21`, the TGI stood at 28.7 µM.
The same measure, in the same setting: then `CC1=NNC(=O)C1C1CC(c2c[nH]c3ccccc23)=NN=C1Cl` (stereo not given), with > 100 µM; and `COc1ccc2c(c1)c(=O)c1c(NCCNCCO)ccc3c(=O)n(CCN(C)C)c(=O)n2c31`, with 15 µM.
Molecule `CC(C)N1CN(c2ccccc2)C2(CCN(CCCC(=O)c3ccc(F)cc3)CC2)C1=O` yielded a TGI of 31.1 µM.
On the same count and under the same terms, then `CC(C)=CCC[C@@H](C)C1=C(O)C(N)=C(C)C(=O)C1=O`, with 24.7 µM; and `c1ccc(C2CC(=NC3CCCCC3)Nc3ccccc3N2)cc1` (stereo not given), with > 100 µM.
